Assay results published in ChEMBL document CHEMBL4689842, “EUbOPEN Chemogenomics Library wave 1” (2021).

Columns and labels:
Assay type in all cases: toxicity, cell-based
HEK-293T = assay: Incucyte cell viability with HEK293T; details: human, 10 µM, compound concentration 10 uM
Fibroblast = assay: Incucyte cell viability with human fibroblast; details: 10 µM, compound concentration 10 uM
U2OS = assay: Incucyte cell viability with U2OS; details: human, 10 µM, compound concentration 10 uM
[1] = 0 h, replicate number 1, timepoint 0 hours
[2] = 0 h, replicate number 2, timepoint 0 hours
[3] = 6 h, replicate number 1, timepoint 6 hours
[4] = 6 h, replicate number 2, timepoint 6 hours
[5] = 12 h, replicate number 1, timepoint 12 hours
[6] = 12 h, replicate number 2, timepoint 12 hours
[7] = 18 h, replicate number 1, timepoint 18 hours
[8] = 24 h, replicate number 1, timepoint 24 hours
[9] = 24 h, replicate number 2, timepoint 24 hours
Note: filed as whole numbers so only -1 and 0 and 1 occur.

Structure (SMILES) | Growth Rate (HEK-293T; [1]) | Growth Rate (HEK-293T; [3]) | Growth Rate (HEK-293T; [5]) | Growth Rate (HEK-293T; [6]) | Growth Rate (HEK-293T; [7]) | Growth Rate (HEK-293T; [8]) | Growth Rate (Fibroblast; [1]) | Growth Rate (Fibroblast; [4]) | Growth Rate (Fibroblast; [5]) | Growth Rate (Fibroblast; [7]) | Growth Rate (Fibroblast; [8]) | Growth Rate (U2OS; [4]) | Growth Rate (U2OS; [5]) | Growth Rate (U2OS; [7]) | Growth Rate (U2OS; [8]) | Growth Rate (Fibroblast; [3]) | Growth Rate (U2OS; [1]) | other results
C[C@H](c1ccc(F)cc1)N(Cc1cccc(C(=O)O)c1)C(=O)c1cnc2ccccc2c1 [PF-05105679] | 1 | 0 | 1 | 0 | 1 | 1 | 0 | 0 | 1 | 1 | 1 | 1 | 0 | 0 | 0 |  |  | Growth Rate (HEK-293T; [2]): 0; Growth Rate (HEK-293T; [4]): 1; Growth Rate (HEK-293T; [9]): 0; Growth Rate (U2OS; [2]): 0; Growth Rate (U2OS; [3]): 0; Growth Rate (U2OS; [6]): 1; Growth Rate (U2OS; 18 h, replicate number 2, timepoint 18 hours): 1; Growth Rate (U2OS; [9]): 1
CC1CCN(CC[C@H]2CCCN2S(=O)(=O)c2cccc(O)c2)CC1.Cl | 0 | 1 | 1 | 0 | 1 | 1 | 0 |  |  | 1 | 1 | 1 | 1 | 1 | 1 | 1 | 0 | Growth Rate (Fibroblast; [6]): 1
O=C(Nc1ccc(Oc2ccc(F)cc2)cc1)N1CCc2ncccc2[C@H]1c1ccc(F)cc1 [BAY-897] | 0 | 0 | 0 |  | 0 | 0 | 0 | 0 | 1 | 1 | 1 |  | 1 | 1 | 1 | 1 | 0 | 
